pEC50: −log10 of the molar value.
What follows are compounds tested on Huh-7 cells containing the self-replicating, subgenomic HCV replicon (assay: HCV replicon assay (luciferase reporter, 72 h)). Details: Hepatitis C virus, Huh-7, 72 h, read-out: HCV Replicon Activity (EC50).
Format: cell-based
Experimental: Huh-7 cells containing the self-replicating, subgenomic HCV replicon with a stable luciferase (LUC) reporter were cultured in Dulbecco's modified Eagle's medium (DMEM) containing 2 mM L-glutamine and supplemented with 10% heat-inactivated fetal bovine serum (FBS), 1% penicillin-streptomyocin, 1% nonessential amino acids, and 0.5 mg/ml G418.
On the first day, 5,000 HCV replicon cells were plated per well in a 96-well plate. On the following day, test compounds were solubilized in 100% DMSO to 100× the desired final testing concentration. Each compound was then serially diluted (1:3) up to 9 different concentrations. Compounds in 100% DMSO are reduced to 10% DMSO by diluting 1:10 in cell culture media. The compounds were diluted to 10% DMSO with cell culture media, which were used to dose the HCV replicon cells in 96-well format. The final DMSO concentration was 1%. The HCV replicon cells were incubated at 37° C. for 72 hours. At 72 hours, cells were processed when the cells are still subconfluent. Compounds that reduce the LUC signal are determined by Bright-Glo Luciferase Assay (Promega, Madison, Wis.). % Inhibition was determined for each compound concentration in relation to the control cells (untreated HCV replicon) to calculate the EC50.

Row | Structure (SMILES) | pEC50
1 | COC(=O)[C@H](C)NP(=O)(Oc1ccccc1)O[C@H](C)[C@H]1O[C@@H](n2ccc(=O)[nH]c2=O)[C@@H](O)[C@@H]1O (stereo partly drawn) [D1, 5′(R)—C-methylarabinouridine 5′-[phenyl(methoxy-L-alaninyl)]phosphate] | > 3.00
2 | COC(=O)[C@H](C)NP(=O)(Oc1ccccc1)O[C@@H](C)[C@H]1O[C@@H](n2ccc(=O)[nH]c2=O)[C@@H](O)[C@@H]1O (stereo partly drawn) [D2, 5′ (S)—C-methylarabinouridine 5′-[phenyl(methoxy-L-alaninyl)]phosphate] | > 3.00
3 | CC(C)OC(=O)[C@H](C)NP(=O)(Oc1ccccc1)O[C@@H](C)[C@H]1O[C@@H](n2cnc3c(N)nc(N)nc32)[C@H](O)[C@@H]1O (stereo partly drawn) [E1, 1-(2,6-diaminopurin-9-yl)-5(S)—C-methyl-β-D-ribofuranose 5-[phenyl(isopropoxy-L-alaninyl)]phosphate] | > 4.52
4 | COC(=O)[C@@H](C)NP(=O)(Oc1ccccc1)O[C@@H](C)[C@H]1O[C@@H](n2cnc3c(N)ncnc32)[C@](C)(O)[C@@H]1O (stereo partly shown) [drawing 355] | 3.70 to 4.52

Same assay, conditions: read-out: HCV Replicon Activity (EC50); Table 9; Huh-7 HCV replicon cells, luciferase, 72 hours

Row | Structure (SMILES) | pEC50
5 | COC(=O)[C@@H](C)NP(=O)(Oc1ccccc1)O[C@@H](C)[C@H]1O[C@@H](n2cnc3c(N)ncnc32)[C@](C)(O)[C@@H]1O (stereo partly shown) [drawing 364] | 3.70 to 4.52

What follows are compounds tested on HCV genotype 1b HCV replicon harbored in Huh7 cells (assay: Combination testing with compound A10 in HCV replicon (CalcuSyn CI and MacSynergy II synergy volume)). Details: combination of compound A10 with the listed compound; MacSynergy II, Bliss independence; 25-100 synergistic, >100 strongly synergistic.
Format: cell-based
Experimental: Two or more test compounds were tested in combination with each other using an HCV genotype 1b HCV replicon harbored in Huh7 cells with a stable luciferase (LUC) reporter. Cells were cultured under standard conditions in Dulbecco's modified Eagle's medium (DMEM; Mediatech Inc, Herndon, Va.) containing 10% heat-inactivated fetal bovine serum (FBS; Mediatech Inc, Herndon, Va.) 2 mM L-glutamine, and nonessential amino acids (JRH Biosciences). HCV replicon cells were plated in a 96-well plate at a density of 10^4 cells per well in DMEM with 10% FBS. […] The cells were incubated with no compound as a control, with the test compounds, or the combination of compounds for 72 h. The direct effects of the combination of the test compounds were examined using a luciferase (LUC) based reporter as determined by the Bright-Glo Luciferase Assay (Promega, Madison, Wis.). Dose-response curves were determined for individual compounds and fixed ratio combinations of two or more test compounds.
The effects of test compound combinations were evaluated by two separate methods. In the Loewe additivity model, the experimental replicon data was analyzed by using CalcuSyn (Biosoft, Ferguson, Mo.), a computer program based on the method of Chou and Talalay. The program uses the experimental data to calculate a combination index (CI) value for each experimental combination tested. A CI value of <1 indicates a synergistic effect, a CI value of 1 indicates an additive effect, and a CI value of >1 indicates an antagonistic effect.
The second method utilized for evaluating combination effects used a program called MacSynergy II. MacSynergy II software was kindly provided by Dr. M. Prichard (University of Michigan). The Prichard Model allows for a three-dimensional examination of drug interactions and a calculation of the synergy volume (units: μM^2%) generated from running the replicon assay using a checkerboard combination of two or more inhibitors. The volumes of synergy (positive volumes) or antagonism (negative volumes) represent the relative quantity of synergism or antagonism per change in the concentrations of the two drugs. Synergy and antagonism volumes are defined based on the Bliss independence model. In this model, synergy volumes of less than −25 indicate antagonistic interactions, volumes in the −25-25 range indicate additive behavior, volumes in the 25-100 range indicate synergistic behavior and volumes>100 indicate strong synergistic behavior.

Row | Structure (SMILES) | Synergy Volume [μM^2%]
6 | COc1ccc2c(O[C@@H]3C[C@H]4C(=O)N[C@]5(C(=O)O)C[C@H]5/C=C\CCCCC[C@H](NC(=O)OC5CCCC5)C(=O)N4C3)cc(-c3csc(NC(C)C)n3)nc2c1 [BILN-2061] | 12
7 | COC(=O)N[C@H](C(=O)N1CCC[C@H]1c1nc(-c2ccc(-c3ccc(-c4c[nH]c([C@@H]5CCCN5C(=O)[C@@H](NC(=O)OC)C(C)C)n4)cc3)cc2)c[nH]1)C(C)C [BMS-790052] | 25
8 | CCc1cc(CC[C@]2(C3CCCC3)CC(O)=C(Cc3nc4nc(C)cc(C)n4n3)C(=O)O2)cc(CC)n1 [Filibuvir, FILIBUVIR] | 38
9 | Fc1ccccc1-c1nc2ccn(Cc3ccc(-c4ccc(C(F)(F)F)cc4C(F)(F)F)nn3)cc-2n1 [GS-9190] | 112
10 | CNC(=O)c1c(-c2ccc(F)cc2)oc2cc(N(CCO)S(C)(=O)=O)c(C3CC3)cc12 [HCV-796] | 35
11 | COc1nc(N)nc2c1ncn2[C@@H]1O[C@H](COP(=O)(N[C@@H](C)C(=O)OCC(C)(C)C)Oc2cccc3ccccc23)[C@@H](O)[C@@]1(C)O (stereo partly shown) [INX-189] | 31
12 | CC(C)(C)OC(=O)N[C@H]1CCCCC/C=C\[C@@H]2C[C@@]2(C(=O)NS(=O)(=O)C2CC2)NC(=O)[C@@H]2C[C@@H](OC(=O)N3Cc4cccc(F)c4C3)CN2C1=O [ITMN-191, DANOPREVIR] | 39
13 | CCOc1nc(N)nc2c1ncn2[C@@H]1O[C@@H]2COP(=O)(OC(C)C)O[C@H]2[C@@]1(C)F (stereo partly shown) [PSI-938] | 36
14 | C[C@@]1(F)[C@H](O)[C@@H](CO)O[C@H]1n1ccc(N)nc1=O [PSI-6130] | 21
15 | CC(C)OC(=O)[C@H](C)NP(=O)(OC[C@H]1O[C@@H](n2ccc(=O)[nH]c2=O)[C@](C)(F)[C@@H]1O)Oc1ccccc1 (stereo partly shown) [PSI-7851] | 14
16 | NC(=O)c1ncn([C@@H]2O[C@H](CO)[C@@H](O)[C@H]2O)n1 [Ribavirin, ribavirin] | 0
17 | COc1ccc2c(O[C@@H]3C[C@H]4C(=O)N[C@]5(C(=O)NS(=O)(=O)C6CC6)C[C@H]5/C=C\CCCCN(C)C(=O)[C@@H]4C3)cc(-c3nc(C(C)C)cs3)nc2c1C [TMC-435] | 104
18 | CC(C)(C)C#Cc1cc(N(C(=O)[C@H]2CC[C@H](C)CC2)[C@H]2CC[C@H](O)CC2)c(C(=O)O)s1 [VX-222] | 52
19 | CCC[C@H](NC(=O)[C@@H]1[C@H]2CCC[C@H]2CN1C(=O)[C@@H](NC(=O)[C@@H](NC(=O)c1cnccn1)C1CCCCC1)C(C)(C)C)C(=O)C(=O)NC1CC1 [VX-950, Telaprevir] | 34

Source: US20120070411A1, “SUBSTITUTED NUCLEOTIDE ANALOGS” (Alios BioPharma, Inc., priority 2010, published 2012)
